The values below come from patent US9895331B2, “Prophylactic and/or therapeutic agent for radiation damage” (The University of Tokyo, priority 2012, dated 2018).

Common to all, as to format: in vivo, C57BL/6 mice
Assay [1] relates to mouse suffering from radiation damage. The assay can be described thus: Radiation damage-alleviating effect of 5-ALA in irradiated mice (survival rate, body weight, appearance). Conditions: for body weight vs non-ALA administration group / body weight, p vs non-ALA administration group: eleven days after irradiation; for body weight vs non-ALA administration group / body weight, p vs non-ALA administration group / changes in appearance: total 8 Gy. The text has this: Male 8-week-old C57BL/6 mice were purchased from Japan SLC, Inc. and mice that appeared healthy by visual inspection on the day of arrival were subjected to the test. On the day after arrival, based on the body weight, the mice were divided into three groups of 10 mice per group by random sampling, and further, one group was divided into three, three, and four mice per cage. The mice were allowed to feed on the basic feed MF manufactured by Oriental Yeast Co., Ltd. and tap water ad libitum and reared in a rearing room at a room temperature of 23 to 24° C., a humidity of 30 to 40%, and under 12 hours of fluorescent lamp lighting.
The mice were divided into three groups of [1] to [3], each receiving a different drug, as shown below. Group; Non-5-ALA administration group (10 mice) Group; 5-ALA hydrochloride 10 mg/kg body weight administration group (10 mice) Group; 5-ALA hydrochloride 100 mg/kg body weight administration group (10 mice)
Using Pantac HF350 (200 KV, 20 mA Filter: Cu 0.1 mm+Al 0.5 mm), the mice were irradiated with 4 Gy of radiation twice at a 3-hour interval (a total of 8 Gy).
After initiation of irradiation, water was forcedly administered to the aforementioned group, and an aqueous solution of 5-ALA hydrochloride was forcedly administered to the aforementioned groups and [3] every day in the stomach through a feeding tube.
Setting the day of irradiation at day 0, survival up to day 21 was checked. A mouse that survived for 21 days was judged as alive. […] Also, when the death was confirmed in the morning hours, the death was judged to have occurred on the previous day.
At the time of confirmation of survival in (5) above, body weight was simultaneously measured.
During the measurement in (5) above, it was examined whether there was any change in appearance between the administration group and non-administration group.

Assay [2] has the same test system. Nature of the assay: Assessment test for hematopoiesis-promoting effect (body weight, blood cell count by flow cytometer; 4.0 Gy). As to conditions: 5-ALA hydrochloride 100 mg/kg. The text has this:
Male 8-week-old C57BL/6 mice were purchased from Japan SLC, Inc. and mice that appeared healthy by visual inspection on the day of arrival were subjected to the test. On the day after arrival, based on the body weight, the mice were divided into three groups of eight mice per group by random sampling, and further, one group was divided into four mice per cage. Also, as an untreated group, one group of four mice was kept in one cage. The mice were allowed to feed on the basic feed MF manufactured by Oriental Yeast Co., Ltd. and tap water ad libitum and reared in a rearing room at a room temperature of 23 to 24° C., a humidity of 30 to 40%, and under 12 hours of fluorescent lamp lighting.
The mice were divided into four groups, including three groups a) to c), each receiving a different drug, and an untreated group, as shown below.
Group a); Non-5-ALA administration group
Group b); 5-ALA hydrochloride 100 mg/kg body weight administration group
Group c); 5-ALA hydrochloride 100 mg+SFC 157 mg/kg body weight administration group
Using Pantac HF350 (200 KV, 20 mA Filter: Cu 0.1 mm+Al 0.5 mm), the mice were collectively irradiated with a radiation dose of 4.0 Gy on day 0.
From two days before initiation of irradiation (day −2) to day 6, water was forcedly administered to the aforementioned group a), an aqueous solution of 5-ALA hydrochloride was forcedly administered to the aforementioned group b), and an aqueous solution of 5-ALA hydrochloride and SFC was forcedly administered to the aforementioned group c) every day in the stomach through a feeding tube.
Setting the day of irradiation at day 0, the body weight was measured two days before initiation of irradiation (day −2), and on day 0, day 3, and day 6.
The group of cells obtained from the bone marrow, spleen, and thymus were analyzed by a flow cytometer. As an index for identifying each cell, the markers shown in the above [Table 2] were each used.
The results of analyzing the group of cells obtained from the bone marrow, spleen, and thymus by a flow cytometer are shown in FIG. 6. The number of bone marrow cells was counted as a sum of B cells, T cells, polymorphonuclear leukocytes (neutrophils), monocytes, and Ery I to IV. The number of thymocytes was counted as a sum of the number of CD4SP, CD8SP, DN, and DP. The number of spleen cells was counted as a sum of B cells, T cells, polymorphonuclear leukocytes (neutrophils), monocytes, and Ery I to IV.
For orientation: In flow cytometry, cells or beads pass a laser one at a time.

The test system is the same in assay [3]. The assay can be described thus: Test for studying the establishment of an assessment model (body weight, blood cell count by flow cytometer; 3.5, 4.0, 4.5 Gy). The text has this:
Male 8-week-old C57BL/6 mice were purchased from Japan SLC, Inc. and mice that appeared healthy by visual inspection on the day of arrival were subjected to the test. On the day after arrival, based on the body weight, the mice were divided into 10 groups of four mice per group by random sampling, and each group was kept in one cage. The mice were allowed to feed on the basic feed MF manufactured by Oriental Yeast Co., Ltd. and tap water ad libitum and reared in a rearing room at a room temperature of 23 to 24° C., a humidity of 30 to 40%, and under 12 hours of fluorescent lamp lighting.
The mice were divided into 10 groups, including nine groups of 1) to 9), each receiving a different drug and exposed to a different radiation dose, and an untreated group, as shown below.
Groups 1) to 3); Three non-5-ALA administration groups, each irradiated with 3.5 Gy, 4.0 Gy, or 4.5 Gy
Groups 4) to 6); Three 5-ALA hydrochloride 100 mg/kg body weight administration groups, each irradiated with 3.5 Gy, 4.0 Gy, or 4.5 Gy
Groups 7) to 9); Three 5-ALA hydrochloride 100 mg+SFC 157 mg/kg body weight administration groups, each irradiated with 3.5 Gy, 4.0 Gy, or 4.5 Gy […]
Setting the day of irradiation at day 0, the body weight was measured two days before initiation of irradiation (day −2), and on day 0, day 3, day 5, and day 7.
The group of cells obtained from the bone marrow, spleen, and thymus were analyzed by a flow cytometer. […]
The results of analyzing the group of cells obtained from the bone marrow, spleen, and thymus by a flow cytometer are shown in FIG. 4. The number of bone marrow cells was counted as a sum of B cells, T cells, polymorphonuclear leukocytes (neutrophils), monocytes, and Ery I to IV. The number of thymocytes was counted as a sum of the number of CD4SP, CD8SP, DN, and DP. The number of spleen cells was counted as a sum of B cells, T cells, polymorphonuclear leukocytes (neutrophils), monocytes, and Ery I to IV.

Consider `NCC(=O)CCC(=O)O` [ALA, 5-aminolevulinic acid], for which the “survival rate, p (Logrank method) vs non-ALA administration group” value in assay [1] (10 mg/kg, 4 Gy twice (total 8 Gy), up to day 21) was determined as 0.161. For the same compound, in assay [1] (10 mg/kg), the “body weight vs non-ALA administration group” value is “significant difference” and the “body weight, p vs non-ALA administration group” value is on record as 0.03556. The changes in appearance entry in assay [1] (10 mg/kg, vs non-ALA group) is listed as “milder piloerection”. The survival rate entry in assay [1] (100 mg/kg daily intragastric after irradiation, 4 Gy twice (total 8 Gy), up to day 21, vs non-ALA group) is reported as “significantly improved”. The “survival rate, p (Logrank method) vs non-ALA administration group” value in assay [1] (100 mg/kg, 4 Gy twice (total 8 Gy), up to day 21) worked out at 0.0289. In assay [1] (100 mg/kg), the “body weight vs non-ALA administration group” value was “significant difference” and the “body weight, p vs non-ALA administration group” value came to 0.03456. For the same compound, the changes in appearance result in assay [1] (100 mg/kg, vs non-ALA group) was “milder piloerection”. Moreover, in assay [2] (bone marrow), the “number of B cells among the bone marrow cells” value was “tendency of improvement”, the “number of bone marrow TER119+ erythroid progenitor cells” value was “tendency of improvement” and the “number of monocytes among the bone marrow cells” value was “tendency of improvement”. In assay [2] (spleen), the “number of B cells among the spleen cells” value was “statistically significant improvement”, the “number of CD11b+ cells among the spleen cells” value was “tendency of improvement”, the “number of polymorphonuclear leukocytes among the spleen cells” value was “tendency of improvement” and the “number of the erythroid progenitor cell Ery IV among the spleen cells” value is “improved with statistical significance”. Besides, the spleen cell count entry in assay [2] (without or with SFC 157 mg/kg, day -2 to day 6, vs H2O control group) is listed as “significant improvement”. Also, in assay [2] (without or with SFC 157 mg/kg, spleen), the “number of T cells among the spleen cells” value is recorded as “tendency of improvement”. For the same compound, the “other items of blood cell count (bone marrow, thymus, spleen; other doses and groups)” value in assay [3] (3.5 to 4.5 Gy, vs H2O control group) is given as “no significant difference”. Besides, the “cell count in each organ (bone marrow, spleen, thymus)” value in assay [3] (4.0 Gy, 5-ALA hydrochloride 100 mg/kg) is recorded as “stable improvement tendency”. Besides, the spleen cell count entry in assay [3] (4.0 Gy, 5-ALA hydrochloride 100 mg/kg, day -2 to day 6, vs H2O control group) is recorded as “significant improvement”.
